Assay results from publication PMC5187884, “In Vitro Antitumor Active Gold(I) Triphenylphosphane Complexes Containing 7-Azaindoles” (International Journal of Molecular Sciences, 2016).

Key:
[1] = system: A2780 human ovarian carcinoma cell line; experiment: In vitro cytotoxicity testing (MTT assay), A2780; assay type: cell-based; settings: 24 h exposure time; for IC50: MTT assay, read-out: IC50 ± SD, A2780
Procedure: Human A2780 ovarian carcinoma, A2780R cisplatin-resistant ovarian carcinoma and MRC-5 normal fibroblast cell lines were supplied by the European Collection of Cell Cultures (ECACC). The cell lines were cultured, according to the supplier´s instructions, in RPMI-1640 medium supplemented with 10% of fetal calf serum, 1% of 2 mM glutamine, and 1% penicillin/streptomycin. All cell lines were grown as adherent monolayers at 37 °C and 5% CO2 in a humidified atmosphere.

[2] = system: A2780R cisplatin-resistant ovarian carcinoma cell line; experiment: In vitro cytotoxicity testing (MTT assay), A2780R; assay type: cell-based, human; settings: 24 h exposure time; for IC50: MTT assay, read-out: IC50 ± SD, A2780R
Procedure: (§1) The cell lines were cultured, according to the supplier´s instructions, in RPMI-1640 medium supplemented with 10% of fetal calf serum, 1% of 2 mM glutamine, and 1% penicillin/streptomycin. All cell lines were grown as adherent monolayers at 37 °C and 5% CO2 in a humidified atmosphere.

[3] = system: MRC-5 normal fibroblast cell line; experiment: In vitro cytotoxicity testing (MTT assay), MRC-5; assay type: cell-based, human; settings: 24 h exposure time; for IC50: MTT assay, read-out: IC50 ± SD, MRC5
Procedure: as §1

[4] = Solubility
[5] = target: T1, bovine serum albumin (BSA) (Bos taurus, UniProt P02769); experiment: Interaction study with bovine serum albumin (NMR); settings: 50% DMF-d7/50% D2O
T1 construct: purchased Sigma-Aldrich Co. (Prague, Czech Republic) and Fisher-Scientific Co. (Pardubice, Czech Republic)
T1 sequence (P02769 25-607): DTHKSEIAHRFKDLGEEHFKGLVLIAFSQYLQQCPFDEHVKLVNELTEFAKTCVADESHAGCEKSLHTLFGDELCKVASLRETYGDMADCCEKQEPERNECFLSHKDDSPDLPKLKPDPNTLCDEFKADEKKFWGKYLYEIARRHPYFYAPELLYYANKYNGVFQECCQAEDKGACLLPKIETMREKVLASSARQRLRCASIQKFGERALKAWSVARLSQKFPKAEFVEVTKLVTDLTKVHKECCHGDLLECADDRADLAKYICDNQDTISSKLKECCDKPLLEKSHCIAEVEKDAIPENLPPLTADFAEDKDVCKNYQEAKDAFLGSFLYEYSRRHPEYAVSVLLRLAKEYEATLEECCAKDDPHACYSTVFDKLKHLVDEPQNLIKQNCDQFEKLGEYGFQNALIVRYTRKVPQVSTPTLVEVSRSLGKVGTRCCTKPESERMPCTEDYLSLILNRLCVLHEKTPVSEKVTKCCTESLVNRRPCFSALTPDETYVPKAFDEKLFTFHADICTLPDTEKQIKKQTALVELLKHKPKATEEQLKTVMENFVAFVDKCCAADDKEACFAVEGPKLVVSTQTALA
Procedure: An interaction of 8 with bovine serum albumin (BSA) resulted immediately in a white turbidity, which was subsequently removed by centrifugation (13,000 rpm for 3 min; Mini Spin, Eppendorf AG, Hamburg, Germany). The ^1H-NMR spectrum recorded on the obtained supernatant contained the signals of the released N-donor ligand, with the signal positions (e.g., C3–H signal at 6.36 ppm) being consistent with those detected for free H2Me4Claza in the same mixture of solvents (Figure S8). No signals were detected in the ^31P-NMR spectra recorded on the mentioned supernatant.
(§2) Complex 8 and [AuCl(PPh3)] […] Similar solutions were prepared with 1 or 5 mol equivs of GSH, Cys, or BSA. ^1H and ^31P-NMR spectra were recorded at different time points over 48 h at 300 K. The obtained ^1H-NMR spectra were calibrated against the residual signal of water found at 4.75 ppm, while the ^31P-NMR spectra were referenced as described above.

[6] = Solution behaviour in water/DMF mixture (1H and 31P-NMR); assay type: physicochemical; settings: 50% DMF-d7/50% D2O, ca. 1 mM, 48 h at ambient temperature
Procedure: Only one set of ^1H-NMR signals (e.g., C3–H signal at 6.50 ppm) and one ^31P-NMR signal (34.8 ppm) were detected on the fresh solution, and no changes were observed even after 48 h of standing at ambient temperature. The positions of the ^1H and ^31P-NMR signals detected on the solution of 8 in the 50% DMF-d7/50% D2O mixture were different from those of free H2Me4Claza (C3–H signal at 6.32 ppm; Figure 3), PPh3 (^31P-NMR signal at −4.7 ppm), the oxidized triphenylphosphane (O=PPh3; ^31P-NMR signal at 32.4 ppm) or [AuCl(PPh3)] (^31P-NMR signal at 34.2 ppm) dissolved in the same mixture of solvents (Figure S6).
as §2

[7] = system: A2780 human ovarian carcinoma cells; experiment: Cell cycle analysis by flow cytometry (PI/RNase staining); assay type: cell-based; settings: A2780 cells treated at IC50 concentration, 24 h; for S cell cycle phase population: control 9.0% ± 1.9%; for G2 cell cycle phase population: control 24.0% ± 2.6%; for G0/G1 cell cycle phase population: control 66.3% ± 3.8%
Procedure: The obtained results are depicted in Figure 4.
A2780 cells (1.0 × 10^6 per well) were pre-incubated in a six-well plate for 24 h, as described above. […] After 24 h, floating cells were collected and attached cells were harvested using trypsin/EDTA in PBS. Total cells were washed twice with PBS and fixed in 70% ethanol. Cells were resuspended in PBS and DNA staining was achieved by a solution of propidium iodide (PI) supplemented with RNase A (30 min, 25 °C, in the dark). After that, the cells were washed (PBS), resuspended (PBS), and DNA content was measured using flow cytometry (CytoFlex, Beckman Coulter, Brea, CA, USA) detecting emission of DNA-bound PI (maximum at 617 nm) after excitation at 535 nm. The data were analysed using CytExpert^TM software (Beckman Coulter).

[8] = Stability in DMF-d7 (1H and 31P-NMR); assay type: physicochemical; settings: 1H-NMR and 31P-NMR, ambient temperature
[9] = system: A549 human lung carcinoma cells; set-up: method as in PMID 24763048; settings: as compared with untreated cells; cited from earlier work
[10] = system: A2780 cells; set-up: method as in PMID 22322463; settings: cited from earlier work
[11] = system: A2780 cells with acquired resistance to cisplatin; set-up: method as in PMID 22322463; settings: cited from earlier work
[12] = system: U266 human myeloma cells; set-up: method as in PMID 20542334; settings: cited from earlier work

Structure (SMILES)	in vitro cytotoxicity against A2780 compared with cisplatin [1]	IC50 [1] [µM]	RF = resistance factor (IC50(A2780R)/IC50(A2780)) [2]	IC50 [2] [µM]	SI = selectivity index (IC50(MRC5)/IC50(A2780)) [3]	IC50 [3] [µM]	further results
Clc1c[n]([Au][P](c2ccccc2)(c2ccccc2)c2ccccc2)c2ncc(Br)cc12 [Complex 6, [Au(3Cl5Braza)(PPh3)]]	comparable	22.9 ± 2.3	0.6	13.8 ± 2.1	1.2	26.5 ± 3.7	–
Brc1c[n]([Au][P](c2ccccc2)(c2ccccc2)c2ccccc2)c2ncccc12 [Complex 3, [Au(3Braza)(PPh3)]]	comparable	23.3 ± 3.4	0.9	21.3 ± 0.8	1.2	27.3 ± 1.7	–
Cc1cc2c(Cl)ccnc2[n]1[Au][P](c1ccccc1)(c1ccccc1)c1ccccc1 [Complex 8, [Au(2Me4Claza)(PPh3)]]	more than seven times higher	2.8 ± 0.7	–	8.9 ± 3.8	9.6	26.9 ± 3.6	solubility in water [4]: low solubility in water; interaction with BSA [5]: replaces the N-donor ligand 2Me4Claza; hydrolytic stability [6]: hydrolytically stable
N.N.[Cl][Pt][Cl] [Cisplatin, cisplatin, reference compound]	–	20.3 ± 2.3	–	> 50	–	> 50	cell cycle modification (phase arrest) [7]: S-arrest; S cell cycle phase population [7]: 44.8% ± 2.9%
[Cl][Au].c1ccc(P(c2ccccc2)c2ccccc2)cc1 [[AuCl(PPh3)], chlorido-triphenylphosphanegold(I) complex]	–	–	–	–	–	–	stability in DMF-d7 [8]: low stability
Brc1cnc2c(cc[n]2[Au][P](c2ccccc2)(c2ccccc2)c2ccccc2)c1 [Complex 5, [Au(5Braza)(PPh3)]]	–	3.1 ± 0.5	–	14.4 ± 3.3	8.4	26 ± 4.2	cell cycle modification (phase arrest) [7]: G2-arrest; S cell cycle phase population [7]: 9.1% ± 2.1%; G2 cell cycle phase population [7]: 30.4% ± 2.9%; G0/G1 cell cycle phase population [7]: 58.1% ± 5.8%
CC[PH](CC)(CC)[Au][S][C@@H]1O[C@H](COC(C)=O)[C@@H](OC(C)=O)[C@H](OC(C)=O)[C@H]1OC(C)=O [auranofin, triethylphosphane-(2,3,4,6-tetra-O-acetyl-β-D-thiopyranosato)gold(I) complex]	–	–	–	–	–	–	sub-G1 cell cycle phase population increase [9]: > 13%; potency in vitro against A2780 cells relative to cisplatin [10]: ca. three-fold higher; RF (resistance factor) [11]: ca. 0.9; cell cycle arrest [12]: G0/G1 cell cycle arrest
Brc1cnc2c(c1)c(I)c[n]2[Au][P](c1ccccc1)(c1ccccc1)c1ccccc1 [Complex 7, [Au(3I5Braza)(PPh3)]]	comparable	20.2 ± 2.5	1.1	22.1 ± 0.3	1.4	27.3 ± 2.6	–
Clc1c[n]([Au][P](c2ccccc2)(c2ccccc2)c2ccccc2)c2ncccc12 [Complex 2, [Au(3Claza)(PPh3)]]	comparable	22.4 ± 5.7	1.0	21.7 ± 0.8	1.4	31.4 ± 4.9	–
Ic1c[n]([Au][P](c2ccccc2)(c2ccccc2)c2ccccc2)c2ncccc12 [Complex 4, [Au(3Iaza)(PPh3)]]	–	3.5 ± 0.4	–	11 ± 4.7	8.3	29.2 ± 5.9	–
c1ccc([P]([Au][n]2ccc3cccnc32)(c2ccccc2)c2ccccc2)cc1 [Complex 1, [Au(aza)(PPh3)]]	–	3.8 ± 1.1	1.2	4.4 ± 0.8	2.0	7.7 ± 1.7	solubility in the used medium ([4]; cell culture medium, dilution of 50 mM DMF stock): less soluble; cell cycle modification (phase arrest) [7]: G2-arrest; S cell cycle phase population [7]: 7.2% ± 0.9%; G2 cell cycle phase population [7]: 44.0% ± 2.3%; G0/G1 cell cycle phase population [7]: 46.0% ± 2.8%
